Measured values as given in patent publication US20250282827A1, “LIPIDATED POLYMYXIN ANALOGUES” (priority 2021, published 2025).
≈ marks a conversion by molar mass, not a printed value. Positions of bridges follow the written chain, without caps; N, C: chain ends. Non-standard residues stand in square brackets, D forms with d. Residues, ends and D or L forms follow the SMILES beside them. *: point of attachment. Ethyl(2-propionyloxy) = CCC(=O)OCC*; Ethyl(2-OPiv) = CC(C)(C)C(=O)OCC*; hCys = N[C@@H](CCS)C(=O)O; Dab = NCC[C@H](N)C(=O)O; X4 = CCCCCCCC(=O)OCC*; X1 = CCCCCC(=O)OCC*; X13 = CCCCC(=O)OCC*

Experiments:
[1] = test system: A. baumannii ATCC 19606; type: cell-based, Acinetobacter baumannii; details: ATCC 19606
Source text: (§1) All 81 compounds prepared in Examples 2 and 3 underwent screening against a panel of Gram-negative bacterium to assess their ability to inhibit bacterial growth. […] The median value is presented.

[2] = test system: E. coli ATCC 25922; type: cell-based, Escherichia coli; details: ATCC 25922
Source text: as §1

[3] = test system: E. coli ATCC MS8345; type: cell-based, Escherichia coli; details: ATCC MS8345
Source text: as §1
Expansion of the polymyxin macrocycle by substituting […]) offered little advantage in antimicrobial activity but was generally well tolerated although for A. baumanni and P. aeruginosa this was detrimental.

[4] = test system: K. pneumoniae ATCC 700603; type: cell-based, Klebsiella pneumoniae; details: ATCC 700603
Source text: as §1

[5] = test system: K. pneumoniae ATCC MS6671; type: cell-based, Klebsiella pneumoniae; details: ATCC MS6671
Source text: as §1

[6] = test system: K. pneumoniae ATCC 33495; type: cell-based, Klebsiella pneumoniae; details: ATCC 33495
Source text: as §1

[7] = test system: P. aeruginosa ATCC 27853; type: cell-based, Pseudomonas aeruginosa; details: ATCC 27853
Source text: as §1

In the case of CCC(=O)OCCSCC[C@H](N)C(=O)N[C@@H](CCN)C(=O)N[C@H](C(=O)N[C@@H](CCN)C(=O)N[C@H]1CCNC(=O)[C@H]([C@@H](C)O)NC(=O)[C@H](CCN)NC(=O)[C@H](CCN)NC(=O)[C@H](CC(C)C)NC(=O)[C@@H](Cc2ccccc2)NC(=O)[C@H](CCN)NC1=O)[C@@H](C)O [Compound 60] (H-[hCys](Ethyl(2-propionyloxy))[Dab]T[Dab][Dab][Dab][dF]L[Dab][Dab]T; lactam 5-C), the “MIC A. baumannii ATCC 19606” value [1] is reported as 2 µg/mL (≈ 1.56 µM), the “MIC E. coli ATCC 25922” value [2] is reported as 0.25 µg/mL (≈ 0.195 µM) and the “MIC E. coli ATCC MS8345” value [3] is reported as 16 µg/mL (≈ 12.5 µM). The “MIC K. pneumoniae ATCC 700603” value [4] was 0.25 to 0.5 µg/mL, the “MIC K. pneumoniae ATCC MS6671” value [5] was over 32 µg/mL and the “MIC K. pneumoniae ATCC 33495” value [6] was 0.25 µg/mL (≈ 0.195 µM). For the same molecule, the “MIC P. aeruginosa ATCC 27853” value [7] was 0.5 µg/mL (≈ 0.39 µM).
In the case of CCCCC(=O)OCCSC[C@@H](N)C(=O)N[C@H](C(=O)N[C@@H](CCN)C(=O)N[C@H]1CCNC(=O)[C@H]([C@@H](C)O)NC(=O)[C@H](CCN)NC(=O)[C@H](CCN)NC(=O)[C@H](CC(C)C)NC(=O)[C@@H](Cc2ccccc2)NC(=O)[C@H](CCN)NC1=O)[C@@H](C)O [Compound 90] (H-[dC](X13)T[Dab][Dab][Dab][dF]L[Dab][Dab]T; lactam 4-C), the “MIC A. baumannii ATCC 19606” value [1] is reported as over 16 µg/mL, the “MIC E. coli ATCC 25922” value [2] is reported as 4 µg/mL (≈ 3.35 µM) and the “MIC E. coli ATCC MS8345” value [3] is reported as over 32 µg/mL. The “MIC K. pneumoniae ATCC 700603” value [4] was 4 µg/mL (≈ 3.35 µM), the “MIC K. pneumoniae ATCC MS6671” value [5] was over 32 µg/mL and the “MIC K. pneumoniae ATCC 33495” value [6] was 2 µg/mL (≈ 1.67 µM). The “MIC P. aeruginosa ATCC 27853” value [7] was 4 µg/mL (≈ 3.35 µM).
With CCCCCC(=O)OCCSC[C@@H](N)C(=O)N[C@H](C(=O)N[C@@H](CCN)C(=O)N[C@H]1CCNC(=O)[C@H]([C@@H](C)O)NC(=O)[C@H](CCN)NC(=O)[C@H](CCN)NC(=O)[C@H](CC(C)C)NC(=O)[C@@H](Cc2ccccc2)NC(=O)[C@H](CCN)NC1=O)[C@@H](C)O [Compound 91] (H-[dC](X1)T[Dab][Dab][Dab][dF]L[Dab][Dab]T; lactam 4-C) the “MIC A. baumannii ATCC 19606” value [1] was 4 µg/mL (≈ 3.31 µM), the “MIC E. coli ATCC 25922” value [2] was 1 µg/mL (≈ 0.827 µM) and the “MIC E. coli ATCC MS8345” value [3] was 16 µg/mL (≈ 13.2 µM). The “MIC K. pneumoniae ATCC 700603” value [4] was 2 µg/mL (≈ 1.65 µM), the “MIC K. pneumoniae ATCC MS6671” value [5] was over 32 µg/mL and the “MIC K. pneumoniae ATCC 33495” value [6] was 1 µg/mL (≈ 0.827 µM). For the same molecule, the “MIC P. aeruginosa ATCC 27853” value [7] was 2 µg/mL (≈ 1.65 µM).
With CCCCCCCC(=O)OCCSC[C@@H](N)C(=O)N[C@H](C(=O)N[C@@H](CCN)C(=O)N[C@H]1CCNC(=O)[C@H]([C@@H](C)O)NC(=O)[C@H](CCN)NC(=O)[C@H](CCN)NC(=O)[C@H](CC(C)C)NC(=O)[C@@H](Cc2ccccc2)NC(=O)[C@H](CCN)NC1=O)[C@@H](C)O [Compound 92] (H-[dC](X4)T[Dab][Dab][Dab][dF]L[Dab][Dab]T; lactam 4-C) the “MIC A. baumannii ATCC 19606” value [1] was 2 µg/mL (≈ 1.62 µM), the “MIC E. coli ATCC 25922” value [2] was 1 µg/mL (≈ 0.809 µM) and the “MIC E. coli ATCC MS8345” value [3] was 16 µg/mL (≈ 12.9 µM). The “MIC K. pneumoniae ATCC 700603” value [4] was 2 µg/mL (≈ 1.62 µM), the “MIC K. pneumoniae ATCC MS6671” value [5] was over 32 µg/mL and the “MIC K. pneumoniae ATCC 33495” value [6] was 2 µg/mL (≈ 1.62 µM). The “MIC P. aeruginosa ATCC 27853” value [7] was 2 µg/mL (≈ 1.62 µM).
CC(C)C[C@@H]1NC(=O)[C@@H](Cc2ccccc2)NC(=O)[C@H](CCN)NC(=O)[C@@H](NC(=O)[C@H](CCN)NC(=O)[C@@H](NC(=O)[C@H](N)CSCCOC(=O)C(C)(C)C)[C@@H](C)O)CCNC(=O)[C@H]([C@@H](C)O)NC(=O)[C@H](CCN)NC(=O)[C@H](CCN)NC1=O [Compound 93] (H-[dC](Ethyl(2-OPiv))T[Dab][Dab][Dab][dF]L[Dab][Dab]T; lactam 4-C) was tested, and the “MIC A. baumannii ATCC 19606” value [1] was 4 µg/mL (≈ 3.35 µM), the “MIC E. coli ATCC 25922” value [2] was 1 µg/mL (≈ 0.837 µM) and the “MIC E. coli ATCC MS8345” value [3] was 32 µg/mL (≈ 26.8 µM). For the same molecule, the “MIC K. pneumoniae ATCC 700603” value [4] was 2 µg/mL (≈ 1.67 µM), the “MIC K. pneumoniae ATCC MS6671” value [5] was over 32 µg/mL and the “MIC K. pneumoniae ATCC 33495” value [6] was 1 µg/mL (≈ 0.837 µM). The “MIC P. aeruginosa ATCC 27853” value [7] was 2 µg/mL (≈ 1.67 µM).
